Assay results as given in patent US8906925B2, “Pyrido[4,3-B]indoles containing rigid moieties” (Medivation Technologies, Inc., priority 2008, dated 2014).

Assays:
[1] = target: T1, human recombinant adrenergic α1D receptor (Homo sapiens, UniProt P25100); assay: Adrenergic α1D radioligand binding ([3H]Prozosin); conditions: percent inhibition of specific binding; compound at 1 μM; read-out: Inhibition of ligand binding, Adrenergic α1D
T1 construct: expressed in transfected cells; host or cells: human embryonic kidney (HEK-293) cells
T1 sequence (P25100 1-572): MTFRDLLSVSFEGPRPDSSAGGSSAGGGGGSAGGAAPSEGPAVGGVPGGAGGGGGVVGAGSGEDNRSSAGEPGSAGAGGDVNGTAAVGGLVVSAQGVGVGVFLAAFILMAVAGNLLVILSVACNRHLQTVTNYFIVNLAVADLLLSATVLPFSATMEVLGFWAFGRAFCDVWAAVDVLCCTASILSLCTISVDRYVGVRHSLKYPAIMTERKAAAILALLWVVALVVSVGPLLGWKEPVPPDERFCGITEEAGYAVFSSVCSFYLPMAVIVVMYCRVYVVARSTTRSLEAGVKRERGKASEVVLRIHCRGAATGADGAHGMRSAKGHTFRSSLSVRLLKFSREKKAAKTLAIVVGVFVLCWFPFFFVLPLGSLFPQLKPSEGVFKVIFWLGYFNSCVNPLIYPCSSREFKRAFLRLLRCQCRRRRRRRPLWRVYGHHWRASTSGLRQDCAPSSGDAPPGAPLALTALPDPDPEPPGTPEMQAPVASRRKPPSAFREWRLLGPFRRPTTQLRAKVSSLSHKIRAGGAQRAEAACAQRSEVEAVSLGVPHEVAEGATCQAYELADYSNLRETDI
Experimental: Compounds of invention were incubated with 0.6 nM [^3H]Prozosin for 60 min. at 25° C. Non-specific binding was estimated in the presence of 10 μM phentolamine. Receptor proteins were filtered and washed, the filters were then counted to determine [^3H]Prozosin specifically bound. Compounds were screened at 1 μM or lower, using 1% DMSO as vehicle. Biochemical assay results are presented as the percent inhibition of specific binding in Table 9.

[2] = target: human dopamine D2L receptor (Homo sapiens, UniProt P14416); assay: Dopamine D2L radioligand binding ([3H]Spiperone); conditions: percent inhibition of specific binding; compound at 1 μM; read-out: Inhibition of ligand binding, Dopamine D2L
Source text: Non-specific binding was estimated in the presence of […] Haloperidol. Receptor proteins were filtered and washed, the filters were then counted to determine [^3H]Spiperone specifically bound. […] Biochemical assay results are presented as the percent inhibition of specific binding in Table 9.

[3] = target: T2, human recombinant serotonin (5-Hydroxytryptamine) 5-HT2C receptor (Homo sapiens, UniProt P28335); assay: Serotonin 5-HT2C radioligand binding ([3H]Mesulergine); conditions: compound at 1 μM; read-out: Inhibition of ligand binding, Serotonin 5-HT2C (percent inhibition of specific binding)
T2 construct: expressed in transfected cells; host or cells: Chinese hamster ovary (CHO-K1) cells
T2 sequence (P28335 33-458): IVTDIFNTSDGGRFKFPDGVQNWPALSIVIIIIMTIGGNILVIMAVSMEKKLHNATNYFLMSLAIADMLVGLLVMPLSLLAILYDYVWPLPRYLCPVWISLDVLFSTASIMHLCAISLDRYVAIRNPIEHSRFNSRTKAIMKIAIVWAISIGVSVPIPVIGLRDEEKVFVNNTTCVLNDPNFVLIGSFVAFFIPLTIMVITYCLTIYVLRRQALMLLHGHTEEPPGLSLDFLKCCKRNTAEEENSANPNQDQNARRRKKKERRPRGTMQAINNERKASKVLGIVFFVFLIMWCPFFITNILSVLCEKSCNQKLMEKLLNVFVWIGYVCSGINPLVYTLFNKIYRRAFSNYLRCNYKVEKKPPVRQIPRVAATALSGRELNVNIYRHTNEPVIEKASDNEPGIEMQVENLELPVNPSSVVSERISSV
Summary of the method: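 Compounds tested at 1 μM or lower (1% DMSO vehicle) for displacement of 1 nM [3H]Mesulergine over 60 min at 25° C. Specific binding determined by filtration counting, with 1 μM Mianserin defining non-specific binding; values are percent inhibition.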

[4] = target: T3, human recombinant serotonin (5-Hydroxytryptamine) 5-HT6 receptor (Homo sapiens, UniProt P50406); assay: Serotonin 5-HT6 radioligand binding ([3H]LSD); conditions: compound at 1 μM; read-out: Inhibition of ligand binding, Serotonin 5-HT6 (percent inhibition of specific binding)
T3 construct: expressed in transfected cells; host or cells: human HeLa cells
Experimental: Compounds of the invention were incubated with 1.5 nM [3H]Lysergic acid diethylamide (LSD) for 120 min. at 37° C. […] Receptor proteins were filtered and washed, the filters were then counted to determine [3H]LSD specifically bound. Compounds were screened at 1 μM or lower, using 1% DMSO as vehicle. Biochemical assay results are presented as the percent inhibition of specific binding in Table 10.

[5] = target: human recombinant serotonin (5-Hydroxytryptamine) 5-HT7 receptor (Homo sapiens, UniProt P34969); assay: Serotonin 5-HT7 radioligand binding ([3H]LSD); conditions: compound at 1 μM; read-out: Inhibition of ligand binding, Serotonin 5-HT7 (percent inhibition of specific binding)
Source text: Receptor proteins were filtered and washed, the filters were then counted to determine [^3H]LSD specifically bound.

T3 sequence (P50406 whole entry): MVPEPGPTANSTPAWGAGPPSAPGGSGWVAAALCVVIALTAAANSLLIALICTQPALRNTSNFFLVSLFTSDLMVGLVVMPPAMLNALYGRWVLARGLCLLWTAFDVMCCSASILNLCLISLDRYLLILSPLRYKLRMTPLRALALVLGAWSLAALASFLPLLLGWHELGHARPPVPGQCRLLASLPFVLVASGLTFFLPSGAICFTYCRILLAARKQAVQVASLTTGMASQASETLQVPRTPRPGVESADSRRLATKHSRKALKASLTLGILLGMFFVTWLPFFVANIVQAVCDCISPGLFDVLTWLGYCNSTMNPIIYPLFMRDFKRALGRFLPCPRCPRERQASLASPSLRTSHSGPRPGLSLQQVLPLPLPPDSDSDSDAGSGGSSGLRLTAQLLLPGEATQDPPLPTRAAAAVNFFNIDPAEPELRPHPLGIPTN
Sequence of human recombinant serotonin (5-Hydroxytryptamine) 5-HT7 receptor (P34969 whole entry): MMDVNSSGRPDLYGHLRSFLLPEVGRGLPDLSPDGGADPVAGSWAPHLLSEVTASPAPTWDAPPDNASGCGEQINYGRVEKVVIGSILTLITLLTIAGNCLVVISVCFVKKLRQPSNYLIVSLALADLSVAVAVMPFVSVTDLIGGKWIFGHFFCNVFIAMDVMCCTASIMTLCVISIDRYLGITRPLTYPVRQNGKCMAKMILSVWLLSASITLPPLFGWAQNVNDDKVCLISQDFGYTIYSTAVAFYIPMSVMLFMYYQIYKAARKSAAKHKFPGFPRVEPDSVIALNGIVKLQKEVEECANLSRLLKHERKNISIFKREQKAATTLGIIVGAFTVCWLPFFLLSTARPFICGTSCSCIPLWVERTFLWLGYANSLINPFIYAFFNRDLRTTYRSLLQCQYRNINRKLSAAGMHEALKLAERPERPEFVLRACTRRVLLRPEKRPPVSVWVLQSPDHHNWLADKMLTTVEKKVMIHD
Sequence of human dopamine D2L receptor (P14416 whole entry): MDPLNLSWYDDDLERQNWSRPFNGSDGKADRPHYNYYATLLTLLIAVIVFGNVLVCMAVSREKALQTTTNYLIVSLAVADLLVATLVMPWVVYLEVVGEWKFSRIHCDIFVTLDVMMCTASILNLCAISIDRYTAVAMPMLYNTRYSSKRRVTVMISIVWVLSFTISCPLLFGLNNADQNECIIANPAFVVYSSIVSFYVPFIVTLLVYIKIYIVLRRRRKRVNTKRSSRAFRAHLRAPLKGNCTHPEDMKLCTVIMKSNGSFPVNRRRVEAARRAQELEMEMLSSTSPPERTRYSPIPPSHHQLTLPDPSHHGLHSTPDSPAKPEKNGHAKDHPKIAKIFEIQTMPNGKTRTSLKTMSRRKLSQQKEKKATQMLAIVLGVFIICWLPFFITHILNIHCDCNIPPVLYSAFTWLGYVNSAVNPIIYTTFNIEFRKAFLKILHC

## C/C(=C\n1c2c(c3cc(Cl)ccc31)CN(C)CC2)c1ccccc1 [compound 106, (E)-8-chloro-2,3,4,5-tetrahydro-2-methyl-5-(2-phenylprop-1-enyl)-1H-pyrido[4,3-b]indole]
[1]
  inhibition at 1 µM: 92%
[2]
  inhibition at 1 µM: 90%
[3]
  inhibition at 1 µM: 98%
[4]
  inhibition at 1 µM: 104%
[5]
  inhibition at 1 µM: 98%
